Data taken from patent US5206252A, “Thiadiazolyl-amino derivatives of benzopyrans and indanes” (American Home Products Corporation, priority 1992, dated 1993).

System: Isolated Rat Bladder Strips
Test: Inhibition of Contractions in Isolated Rat Bladder Strips (smooth muscle relaxing activity, 15 mM KCl-enhanced contractile activity)
Design: species or system Sprague-Dawley rats
Settings: for inhibition at 30 µM: Rattus norvegicus, maximum percentage inhibition of contractile activity, read-out: Inhibition of Force (%) at (X) μM
From the text: The smooth muscle relaxing activity of the compounds of this invention was established in accordance with standard pharmaceutically accepted test procedures in representative compounds as follows:
Sprague-Dawley rats (150-200 g) are rendered unconscious by CO2 asphyxiation and then euthanized by cervical dislocation. The bladder is removed into warm (37 deg.C.) physiological salt solution (PSS) of the following composition (mM): NaCl, 118.4; KCl, 4.7; CaCl2, 2.5; […]; NaHCO3, 24.9; KH2 PO4, 1.2; glucose, 11.1; EDTA, 0.023; gassed with […]; pH 7.4. The bladder is opened and then cut into strips 1-2 mm in width and 7-10 mm in length. The strips are subsequently suspended in a 10 ml tissue bath under an initial resting tension of 1.5 g. The strips are held in place by two surgical clips one of which is attached to fixed hook while the other is attached to an isometric force transducer. […] The carbachol is then washed out and the tissue allowed to relax to its resting level of activity. Following an additional 30 minute period of recovery an additional 15 mM KCl are introduced into the tissue bath. This increase in KCl concentration results in a large increase in the amplitude of spontaneous contractions (and initiation of contractions in previously quiescent strips) superimposed upon a small increase in basal tone. Following stabilization of this enhanced level of contractile activity, incremental increases in the concentration of test compound or vehicle are introduced into the tissue bath. Contractile activity is measured for each compound or vehicle concentration during the last min of a 30 min challenge.
Isometric force developed by the bladder strips is measured using a […] to elicit 50% inhibition of pre-drug contractile activity (IC50 concentration) is calculated from this concentration-response curve. The maximum percentage inhibition of contractile activity evoked by a test compound is also recorded for concentrations of test compound<or equal to 30 uM.

Compound	inhibition at 30 µM [%]	IC50 (0.5 h, isolated rat bladder strips, 15 mM KCl, last min of a 30 min challenge, read-out: IC50 (concentration required to elicit 50% inhibition of pre-drug contractile activity)) [µM]
CC1(C)Oc2ccc(OC(F)(F)F)cc2[C@@H](NC2=NS(=O)(=O)N=C2N)[C@@H]1O [Example 2, (-)-(3S,4R)-4-(4-Amino-1,1-dioxo-[1,2,5]thiadiazol-3-ylamino)2,2-dimethyl-6-trifluoromethoxy-chroman-3-ol]	33	–
CNC1=NS(=O)(=O)N=C1N[C@@H]1c2cc(OC(F)(F)F)ccc2OC(C)(C)[C@H]1O [Example 3, (-)-(3S,4R)-2,2-Dimethyl-4-(4-methylamino-1,1-dioxo-[1,2,5]-thiadiazol-3-ylamino)-6-trifluoromethoxy-chroman-3-ol]	95	4.8
